Earlier results, collected in patent US20100105640A1, “Aromatase Inhibitors for Emergency Contraception” (priority 2005, published 2010).

Conditions: Yuzpe n = 979, Levonorgestrel n = 977

## C#C[C@]1(O)CC[C@H]2[C@@H]3CCC4=CC(=O)CC[C@@H]4[C@H]3CC[C@@]21CC [Levonorgestrel, levonorgestrel]
  Percent with symptom (95% confidence interval): Breast tenderness: 10.8%
  Percent with symptom (95% confidence interval): Dizziness: 11.2%
  Percent with symptom (95% confidence interval): Fatigue: 16.9%
  Percent with symptom (95% confidence interval): Headache: 16.8%
  Percent with symptom (95% confidence interval): Low abdominal pain: 17.6%
  Percent with symptom (95% confidence interval): Nausea: 23.1%
  Percent with symptom (95% confidence interval): Vomiting: 5.6%
Mostly diarrhea and some irregular bleeding or spotting
  Percent with symptom (95% confidence interval): All other adverse effects: 13.5%
